Assay results published in paper PMC7115544 (European Journal of Medicinal Chemistry, 2010).
Where two headings read alike, the source gives them in different places.

What was measured:
[1] = test system: HEL cell cultures; details: human
[2] = test system: HeLa cell cultures; details: human
[3] = test system: Para influenza-3 virus; test: organism not typed; assay type: cell-based; details: Vero, read-out: EC50 Para influenza-3 virus
[4] = test system: Vero cell cultures; details: African green monkey
[5] = test system: Reovirus-1; test: organism not typed; assay type: cell-based; details: Vero, read-out: EC50 Reovirus-1
[6] = test system: Feline Herpes Virus; test: Anti-Feline Herpes Virus activity in CRFK cell cultures; assay type: cell-based; details: for EC50: CRFK, read-out: EC50 Feline Herpes Virus
[7] = in vitro; details: dog
[8] = test system: MDCK cells; test: Cytotoxicity in MDCK cell cultures; assay type: cell-based, canine
[9] = test system: Influenza B; test: microbe, parasite or virus in culture; assay type: cell-based
[10] = test system: MDCK cells
[11] = test system: Vesicular stomatitis virus; test: microbe, parasite or virus in culture; assay type: cell-based; details: HEL, read-out: EC50 Vesicular stomatitis virus
[12] = test system: Vaccinia virus; test: microbe, parasite or virus in culture; assay type: cell-based; details: Orthopoxvirus vaccinia, HEL, read-out: EC50 Vaccinia virus
[13] = test system: Herpes simplex virus-2 (G); test: microbe, parasite or virus in culture; assay type: cell-based
[14] = test system: Herpes simplex virus-1 TK- KOS ACVr; assay type: cell-based
[15] = test system: Herpes simplex virus-1 (KOS); test: microbe, parasite or virus in culture; assay type: cell-based
[16] = test system: Feline Corona Virus (FIPV); test: Anti-Feline Corona Virus activity in CRFK cell cultures; assay type: cell-based; details: MTS assay
[17] = microscopically detectable alteration of normal cell morphology

Q: Which Minimum cytotoxic concentration [1] does the source give for `O=c1c2ccccc2nc(-c2ccccc2)n1/N=C/c1ccc(O)cc1` [Compound 2g, 3-[(4-Hydroxy-benzylidine)-amino]-2-phenyl-3H-quinazolin-4one] here?
A: 100 µg/mL

Q: And the Minimum cytotoxic concentration [2]?
A: 100 µg/mL

Q: And the EC50 [3]?
A: > 20 µg/mL

Q: What about the Minimum cytotoxic concentration [4] of the same molecule?
A: 100 µg/mL

Q: What about the EC50 [5] of the same molecule?
A: > 20 µg/mL

Q: And the EC50 [6]?
A: > 20 µg/mL

Q: Which EC50 [3] does the source give for `O=c1c2ccccc2nc(-c2ccccc2)n1/N=C/c1ccccc1` [Compound 2f, 3-(Benzylidine-amino)-2-phenyl-3H-quinazolin-4one] here?
A: > 4 µg/mL

Q: And the EC50 [5]?
A: > 4 µg/mL

Q: And the EC50 [6]?
A: > 0.8 µg/mL

Q: With `CC(N)C12CC3CC(CC(C3)C1)C2` (stereo not shown) [Rimantadin] as the molecule, how does the CC50 [7] read?
A: 472 µM

Q: Which results are given for `Nc1ncnc2c1ncn2C[C@H](O)CO` [(S)-DHPA, reference compound]?
A: EC50 [3]: > 250 µM; EC50 [5]: > 250 µM

Q: With Oseltamivir carboxylate as the molecule, how does the “Cytotoxicity Minimum cytotoxic concentration” value ([8]; reference compounds) read?
A: >100 µM

Q: And the EC50 ([9]; read-out: Antiviral EC50 Influenza B MTS, […], MTS assay, reference compounds)?
A: 1.5 µM

Q: And the CC50 [10]?
A: > 100 µM

Q: Which results are given for `COc1ccc(/C=N/n2c(-c3ccccc3)nc3ccccc3c2=O)cc1` [Compound 2c, 3-[(4-Methoxy-benzylidine)-amino]-2-phenyl-3H-quinazolin-4one]?
A: EC50 [3]: > 20 µg/mL; Minimum cytotoxic concentration [4]: 100 µg/mL; EC50 [5]: > 20 µg/mL; EC50 [6]: > 4 µg/mL

Q: With `COc1ccccc1/C=N/n1c(-c2ccccc2)nc2ccccc2c1=O` [Compound 2l, 3-[(2-Methoxy-benzylidine)-amino]-2-phenyl-3H-quinazolin-4one] as the molecule, how does the Minimum cytotoxic concentration [1] read?
A: 100 µg/mL

Q: What about the EC50 [3] of the same molecule?
A: > 20 µg/mL

Q: What about the Minimum cytotoxic concentration [4] of the same molecule?
A: 100 µg/mL

Q: And the EC50 [5]?
A: > 20 µg/mL

Q: And the EC50 [6]?
A: > 4 µg/mL

Q: For `C/C(=N\n1c(-c2ccccc2)nc2ccccc2c1=O)c1ccccc1` [Compound 2h, 2-Phenyl-3(1-phenyl-ethylideneamino)-3H-quinazolin-4one], which “Cytotoxicity Minimum cytotoxic concentration” value [8, 17] is on record?
A: 100 µg/mL

Q: What about the Minimum cytotoxic concentration [1] of the same molecule?
A: >100 µg/mL

Q: And the Minimum cytotoxic concentration [2]?
A: >100 µg/mL

Q: And the EC50 [3]?
A: > 20 µg/mL

Q: And the Minimum cytotoxic concentration [4]?
A: 100 µg/mL

Q: And the EC50 [5]?
A: > 20 µg/mL

Q: And the EC50 [6]?
A: > 0.8 µg/mL

Q: With `COc1ccc(/C=N/n2c(-c3ccccc3)nc3ccccc3c2=O)cc1O` [Compound 2k, 3-[(3-Hydroxy-4-methoxy-benzylidine)-amino]-2-phenyl-3H-quinazolin-4one] as the molecule, how does the Minimum cytotoxic concentration [1] read?
A: 100 µg/mL

Q: What about the EC50 [3] of the same molecule?
A: > 20 µg/mL

Q: What about the Minimum cytotoxic concentration [4] of the same molecule?
A: 100 µg/mL

Q: And the EC50 [5]?
A: > 20 µg/mL

Q: What about the EC50 [6] of the same molecule?
A: > 20 µg/mL

Q: For `NC12CC3CC(CC(C3)C1)C2` [Amantadin, reference compound], which “Cytotoxicity Minimum cytotoxic concentration” value ([8]; reference compounds) is on record?
A: >1000 µM

Q: What about the CC50 [7] of the same molecule?
A: > 1000 µM

Q: With `C/C(=N\n1c(-c2ccccc2)nc2ccccc2c1=O)c1ccc(O)cc1` [Compound 2i, 3-[1-(4-Hydroxy-phenyl)-ethylideneamino]-2-phenyl-3H-quinazolin-4one] as the molecule, how does the “Cytotoxicity Minimum cytotoxic concentration” value [8, 17] read?
A: >100 µg/mL

Q: What about the Minimum cytotoxic concentration [1] of the same molecule?
A: >100 µg/mL

Q: What about the Minimum cytotoxic concentration [2] of the same molecule?
A: >100 µg/mL

Q: And the EC50 [3]?
A: > 100 µg/mL

Q: And the Minimum cytotoxic concentration [4]?
A: >100 µg/mL

Q: What about the EC50 [5] of the same molecule?
A: > 100 µg/mL

Q: What about the EC50 [6] of the same molecule?
A: > 100 µg/mL

Q: For `Nc1nc(O)c2ncn(COC(CO)CO)c2n1` [Ganciclovir, reference compound], which Minimum cytotoxic concentration [1] is on record?
A: >100 µM

Q: What about the EC50 [11] of the same molecule?
A: > 100 µM

Q: What about the EC50 [12] of the same molecule?
A: > 100 µM

Q: What about the EC50 [6] of the same molecule?
A: 0.8 µM

Q: For `O=c1c2ccccc2nc(-c2ccccc2)n1/N=C/c1ccc(Cl)cc1` [Compound 2j, 3-[(4-Chloro-benzylidine)-amino]-2-phenyl-3H-quinazolin-4one], which Minimum cytotoxic concentration [1] is on record?
A: 100 µg/mL

Q: What about the EC50 [3] of the same molecule?
A: > 4 µg/mL

Q: What about the EC50 [5] of the same molecule?
A: > 4 µg/mL

Q: What about the EC50 [6] of the same molecule?
A: > 20 µg/mL

Q: With `O=c1c2ccccc2nc(-c2ccccc2)n1/N=C/c1cccc([N+](=O)[O-])c1` [Compound 2b, 3-[(3-Nitro-benzylidine)-amino]-2-phenyl-3H-quinazolin-4one] as the molecule, how does the Minimum cytotoxic concentration [1] read?
A: ≥20 µg/mL

Q: And the EC50 [3]?
A: > 4 µg/mL

Q: And the EC50 [5]?
A: > 4 µg/mL

Q: And the EC50 [6]?
A: > 4 µg/mL

Q: Which “Cytotoxicity Minimum cytotoxic concentration” value [8, 17] does the source give for `O=c1c2ccccc2nc(-c2ccccc2)n1/N=C/c1ccccc1O` [Compound 2a, 3-[(2-Hydroxy-benzylidine)-amino]-2-phenyl-3H-quinazolin-4one] here?
A: ≥0.8 µg/mL

Q: And the Minimum cytotoxic concentration [1]?
A: 100 µg/mL

Q: And the “selectivity index, herpes simplex virus-2 (G)” value [13]?
A: 100

Q: What about the EC50 [3] of the same molecule?
A: > 20 µg/mL

Q: What about the “selectivity index, herpes simplex virus-1 TK- KOS ACVr” value [14] of the same molecule?
A: 100

Q: And the Minimum cytotoxic concentration [4]?
A: 100 µg/mL

Q: And the “selectivity index, herpes simplex virus-1 (KOS)” value [15]?
A: 100

Q: What about the EC50 [6] of the same molecule?
A: > 4 µg/mL

Q: For `NC(=O)c1ncn([C@@H]2O[C@H](CO)[C@@H](O)[C@H]2O)n1` [Ribavirin, reference compound], which “Cytotoxicity Minimum cytotoxic concentration” value ([8]; reference compounds) is on record?
A: ≥100 µM

Q: What about the EC50 ([13]; Human alphaherpesvirus 2, HEL, read-out: EC50 Herpes simplex virus-2 (G)) of the same molecule?
A: > 250 µM

Q: What about the EC50 ([9]; Influenza B virus, MDCK, read-out: Antiviral EC50 Influenza B Visual CPE score) of the same molecule?
A: 9 µM

Q: And the EC50 [12]?
A: > 250 µM

Q: And the EC50 [5]?
A: > 250 µM

Q: What about the EC50 ([15]; Human alphaherpesvirus 1, HEL, read-out: EC50 Herpes simplex virus-1 (KOS)) of the same molecule?
A: > 250 µM

B1: UDA: reference substance in Table 4, not defined in the text (protein, UniProt P11218 24-372, looked up)
Lectin/endochitinase 1: QRCGSQGGGGTCPALWCCSIWGWCGDSEPYCGRTCENKCWSGERSDHRCGAAVGNPPCGQDRCCSVHGWCGGGNDYCSGSKCQYRCSSSVRGPRVALSGNSTANSIGNVVVTEPLFDQMFSHRKDCPSQGFYSYHSFLVAAESFPAFGTIGDVATRKREVAAFLAHISQATSGERSDVENPHAWGLCHINTTTVTENDFCTSSDWPCAAGKKYSPRGPIQLTHNFNYGLAGQAIGEDLIQNPDLVEKDPIISFKTALWFWMSQHDNKPSCHDIVLNANSAANRIPNKGVIGNIISRAFGHDDFAVRSSSIGFYKRYCDMLGVSYGHDLKYWFDNTPSSEFQRIQMRVAA
Q: What does the source list for B1?
A: EC50 Feline Corona Virus (FIPV) [16]: 11.7 µg/mL; EC50 Feline Herpes Virus ([6]; CRFK cell cultures, MTS assay): 53.1 µg/mL
